Patent US20090054504A1 (KNOPP NEUROSCIENCES, INC., priority 2007, published 2009)
Several values for one entry are separate records, joined by “and”; a condition that tells them apart may be missing. Equal values may be shown once. Read-outs that look alike come from different tables or passages of the source.

Legend:
[1] = tested on: non-naïve male beagle dogs
Procedure: (§3) Doses were administered orally by gavage and clinical observations were taken continuously following dosing: hourly for the first four hours, and then twice daily cage-side observations for the duration of the inter-dose or post-dose interval. Observations were made of clinical signs, mortality, injury and availability of food and water. Animals were fasted for 24 hr prior to dosing. Dogs in each group were exposed to only one drug, or the combination; each dose was administered only once, with a subsequent dose administered after a recovery period of 4 days.

D5 dopamine receptor = D5 dopamine receptor (Homo sapiens, UniProt P21918); settings: literature and own data
Procedure: (§1) These concentrations were tested in cell lines expressing select human cloned dopamine receptors (D2S, D3).

D1 dopamine receptor = D1 dopamine receptor (Homo sapiens, UniProt P21728); settings: literature and own data
Procedure: as §1

[2] = tested on: restless legs syndrome patients; settings: human trials; cited from earlier work
[3] = tested on: monkeys treated with MPTP; settings: motor deficits and Parkinson-like symptoms; cited from earlier work
[4] = target: human cloned dopamine receptors (D3) (Homo sapiens, UniProt P35462); experiment: biochemical
Procedure: as §1

[5] = tested on: monkeys treated with MPTP; settings: from MPTP monkey dose
rodents = settings: single oral dose; cited from earlier work
human subjects = settings: cited from earlier work; for MRTD (maximum recommended therapeutic dose): FDA MRTD database
dogs = settings: single oral dose; cited from earlier work
in vivo [6] = settings: male, dog
Procedure: as §3

[7] = tested on: Parkinson's disease patients; settings: human trials; cited from earlier work
in vivo [8] = settings: both, minipig
Procedure: (§4) The 3- and 6-month repeat dose studies have now been completed at the 7.5, 25 and 50 mg/kg dose levels and the 9-month repeat dose study is ongoing.

clinical [9] = settings: human, oral, Fasted; for Cmax: mean ± SD; for Tmax: median
Procedure: (§5) The first panel was administered a single IR dose of 50 mg, followed 48 hours later by 4½ days of multiple IR dosing (twice daily) at 50 mg Q12 hours. The second panel was administered a single IR dose of 100 mg, followed 48 hours later by 4½ days of multiple IR dosing (twice daily) at 100 mg Q12 hours. Safety observations included vital signs, physical examination, clinical laboratory tests, ECGs, and adverse event reporting. Blood samples were collected pre-dose on Day 1 and serially for 48 hours post-dose to assess the single-dose pharmacokinetics.

rats [10] = tested on: rats
Procedure: 3.3—Toxicology Studies. […] Following this study, 3- and 6-month repeat dose toxicology studies were completed at doses of 30, 100, and 300 mg/kg.

minipigs [11] = settings: both, minipig, in vivo, 14 days
Procedure: as §4

healthy adult volunteers [12] = tested on: healthy adult volunteers
Procedure: as §5

minipigs [13] = settings: past month 7, any dose level
D2 dopamine receptor = experiment: D2 binding affinity from journal publications (Schneider & Mierau 1987; Wong & Shrikhande 2003); settings: range over the literature sources
healthy adult volunteers [14] = experiment: clinical; settings: for CL/F / Ue / Fe / λZ: mean ± SD
Procedure: (§2) Safety observations included vital signs, physical examination, clinical laboratory tests, ECGs, and adverse event reporting. Blood and urine samples were collected pre-dose and for 72 hours post-dose to assess the pharmacokinetics.

clinical [15] = settings: human, blood, oral
Procedure: as §2

minipigs [16] = settings: 6-month study, any dose level
rats [17] = settings: 6-month study, any dose level
minipigs [18] = tested on: minipigs
[19] = male, beagle, dog, in vivo, 1 study day
[20] = male, beagle, dog, in vivo, 8 study day
[21] = blood, 50 mg, CL002, 50 mg Q12H (Day 1)
[22] = blood, 50 mg, CL002, 50 mg Q12H (Day 7)
[23] = in vivo, 100 mg, CL002, 100 mg Q12H (Day 1)
[24] = in vivo, 100 mg, CL002, 100 mg Q12H (Day 7)
[25] = CL002, 50 mg Q12H (Day 1), Fasted, mean ± SD
[26] = CL002, 50 mg Q12H (Day 7), Fasted, mean ± SD
[27] = CL002, 100 mg Q12H (Day 1), Fasted, mean ± SD
[28] = CL002, 100 mg Q12H (Day 7), Fasted, mean ± SD
[29] = Day 1, 50 mg IR oral, fasted, mean ± SD
[30] = Day 1, 100 mg IR oral, fasted, mean ± SD
[31] = Day 7, 50 mg after Q12H Days 3-6, fasted, mean ± SD
[32] = Day 7, 100 mg after Q12H Days 3-6, fasted, mean ± SD

Sequence of human cloned dopamine receptors (D3) (P35462 whole entry): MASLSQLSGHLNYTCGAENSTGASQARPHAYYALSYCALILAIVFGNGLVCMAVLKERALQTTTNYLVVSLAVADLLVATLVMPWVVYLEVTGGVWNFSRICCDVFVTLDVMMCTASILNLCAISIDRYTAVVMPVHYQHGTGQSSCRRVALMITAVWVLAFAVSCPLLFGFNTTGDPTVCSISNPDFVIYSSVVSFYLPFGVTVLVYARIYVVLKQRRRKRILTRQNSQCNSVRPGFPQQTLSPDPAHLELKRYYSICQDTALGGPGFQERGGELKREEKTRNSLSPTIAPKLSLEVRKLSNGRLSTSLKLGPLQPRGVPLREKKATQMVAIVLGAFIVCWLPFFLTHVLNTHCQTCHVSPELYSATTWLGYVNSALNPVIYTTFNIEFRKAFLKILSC
Sequence of D5 dopamine receptor (P21918 whole entry): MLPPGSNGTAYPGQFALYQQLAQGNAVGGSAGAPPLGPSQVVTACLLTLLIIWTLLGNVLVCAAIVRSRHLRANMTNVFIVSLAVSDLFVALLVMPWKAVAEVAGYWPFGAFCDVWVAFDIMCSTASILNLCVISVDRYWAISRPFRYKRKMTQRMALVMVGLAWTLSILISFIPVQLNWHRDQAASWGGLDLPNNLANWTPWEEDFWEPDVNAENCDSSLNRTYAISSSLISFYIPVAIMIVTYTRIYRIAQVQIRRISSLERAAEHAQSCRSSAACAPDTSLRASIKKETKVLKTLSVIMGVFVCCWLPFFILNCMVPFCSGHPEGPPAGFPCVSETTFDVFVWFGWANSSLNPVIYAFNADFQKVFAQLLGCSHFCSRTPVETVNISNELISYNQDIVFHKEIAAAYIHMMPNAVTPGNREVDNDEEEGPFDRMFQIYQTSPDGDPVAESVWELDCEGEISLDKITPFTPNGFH
Sequence of D1 dopamine receptor (P21728 whole entry): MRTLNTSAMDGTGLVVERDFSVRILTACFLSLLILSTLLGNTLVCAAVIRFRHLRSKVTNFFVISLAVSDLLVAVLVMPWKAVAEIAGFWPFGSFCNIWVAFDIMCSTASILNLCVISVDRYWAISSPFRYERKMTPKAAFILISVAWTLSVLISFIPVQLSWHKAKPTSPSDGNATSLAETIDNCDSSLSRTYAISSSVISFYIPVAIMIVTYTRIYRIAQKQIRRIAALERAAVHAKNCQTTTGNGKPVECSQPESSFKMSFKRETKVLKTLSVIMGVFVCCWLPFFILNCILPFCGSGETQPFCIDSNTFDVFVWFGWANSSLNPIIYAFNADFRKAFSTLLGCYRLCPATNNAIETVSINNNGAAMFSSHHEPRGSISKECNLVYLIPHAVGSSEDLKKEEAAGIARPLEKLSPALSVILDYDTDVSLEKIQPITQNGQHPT

With CCCN[C@H]1CCc2nc(N)sc2C1 [PPX, (6S)-4,5,6,7-tetrahydro-N6-propyl-2,6-benzothiazole-diamine] the “human dose equivalent to the dog NOAEL, for a 70 kg individual” value ([1]; IR dose, from dog data) was 0.05 mg, the “human equivalence dose of the dog MTD, for a 70 kg human subject” value ([1]; from dog data) was 0.30 mg and the “Behavior/Activity: Activity decreased” value ([1]; male, beagle, dog, in vivo) was 3/4. For the same compound, the “Excretion: Feces soft” value ([1]; male, beagle, dog, in vivo) was 0/4, the “Excretion: Feces watery” value ([1]; male, beagle, dog, in vivo) was 0/4 and the “External Appearance: Lacrimation” value ([1]; male, beagle, dog, in vivo) was 0/4. For the same compound, the “Eye/Ocular: Pupils dilated” value ([1]; male, beagle, dog, in vivo) was 0/4, the “Pelage/Skin: Skin warm to touch” value ([1]; male, beagle, dog, in vivo) was 0/4 and the “Behavior/Activity: Convulsions - clonic” value [1, 19] was 0/4. The “Behavior/Activity: Salivation” value [1, 19] was 0/4, the “Behavior/Activity: Tremors” value [1, 19] was 1/4 and the “Excretion: Emesis” value [1, 19] was 3/4. The “Excretion: Feces hard” value [1, 19] was 1/4, the “Excretion: Feces mucoid” value [1, 19] was 0/4 and the “Behavior/Activity: Activity decreased” value [1, 20] was 0/4. The “Behavior/Activity: Tremors” value [1, 20] was 0/4, the “Excretion: Emesis” value [1, 20] was 0/4 and the “Excretion: Feces hard” value [1, 20] was 0/4. For the same compound, the “interaction with D5 dopamine receptors” value (D5 dopamine receptor) was “no significant interaction”, the “interaction with D1 dopamine receptors” value (D1 dopamine receptor) was “no significant interaction” and the “lowest effective dose versus placebo, restless legs syndrome” value [2] was 0.25 mg/day. For the same compound, the “lowest effective oral immediate release dose” value [3] was 53 µg/kg, the IC50 [4] was 0.00094 µM and the “equivalent human immediate release dose” value [5] was 17 µg/kg. For the same compound, the “equivalent human immediate release dose for a 70 kg individual” value [5] was 1.2 mg, the “immediate release doses at which deaths occurred (and above)” value (rodents) was 70000 to 105000 µg/kg and the “MRTD (maximum recommended therapeutic dose)” value (human subjects; for a 70 lb. person) was 7.0 mg/day. For the same compound, the “MRTD (maximum recommended therapeutic dose)” value (human subjects) was 0.11 mg/kg/day, the “immediate release dose shown to cause somnolence” value (human subjects; human subjects) was 1.5 mg and the “starting daily dose not tolerated” value (human subjects; naïve patient) was “greater than 0.20 mg”. The “dose at which vomiting occurred (and above)” value (dogs) was ≥ 0.7 µg/kg, the NOAEL at 4 days (in vivo [6]) was 0.7 µg/kg and the MTD at 4 days (in vivo [6]; po) was 7.5 µg/kg. For the same compound, the NOAEL at 4 days (in vivo [6]; po) was 1.25 µg/kg and the “lowest effective oral immediate release dose versus placebo, Parkinson's disease” value [7] was 1.1 mg/day.
With CCCN[C@@H]1CCc2nc(N)sc2C1 [RPPX, (6R)-4,5,6,7-tetrahydro-N6-propyl-2,6-benzothiazole-diamine] the NOAEL at 14 days (in vivo [8]) was ≥ 75000 µg/kg, the “human equivalence dose of the dog MTD, for a 70 kg human subject” value ([1]; from dog data) was “about 3,000 mg” and the “observable effects in dogs” value ([1]; male, beagle, dog, in vivo, 4 days) was “no observable effects”. For the same compound, the Cmax (clinical [9]; [21]) was 139 ± 15.3 ng/mL, the Cmax (clinical [9]; [22]) was 191 ± 20.9 ng/mL and the Tmax (clinical [9]; [21]) was 1.83 h. For the same compound, the Tmax (clinical [9]; [22]) was 1.75 h, the Cmax (clinical [9]; [23]) was 248 ± 30.4 ng/mL and the Cmax (clinical [9]; [24]) was 306 ± 55 ng/mL. For the same compound, the Tmax (clinical [9]; [23]) was 1.92 h, the Tmax (clinical [9]; [24]) was 2 h and the “interaction with D5 dopamine receptors” value (D5 dopamine receptor) was “no significant interaction”. The “interaction with D1 dopamine receptors” value (D1 dopamine receptor) was “no significant interaction”, the “target organ toxicity by histopathology, 3-month study in rats” value (rats [10]; both, rat, in vivo, 300 mg/kg, 3 months) was “some target organ toxicity” and the “target organ toxicity by histopathology, 2-week study in rats” value (rats [10]; both, rat, in vivo, 14 days) was “No target organ toxicity”. The “mortality, 2-week study in rats” value (rats [10]; high dose of 500 mg/kg) was “caused mortality”, the “target organ toxicity by histopathology, 2-week study in minipigs” value (minipigs [11]) was “No target organ toxicity” and the “increase of AUC(0-12) from Day 1 to Day 7” value (healthy adult volunteers [12]; 50 mg Q12H) was 40%. For the same compound, the “increase of Cmax from Day 1 to Day 7” value (healthy adult volunteers [12]; 50 mg Q12H) was 37%, the “increase of AUC(0-12) from Day 1 to Day 7” value (healthy adult volunteers [12]; 100 mg Q12H) was 38% and the “increase of Cmax from Day 1 to Day 7” value (healthy adult volunteers [12]; 100 mg Q12H) was 24%. The “AUC (inf)” value (healthy adult volunteers [12]; [25]) was 1,502 ± 280 h*ng/mL, the “AUC(0-t)” value (healthy adult volunteers [12]; [25]) was 1,463 ± 280 h*ng/mL and the “AUC(0−12)” value (healthy adult volunteers [12]; [25]) was 1,035 ± 121 h*ng/mL. For the same compound, the CL/F (healthy adult volunteers [12]; [25]) was 571 ± 107 mL/h, the “AUC(0−12)” value (healthy adult volunteers [12]; [26]) was 1,449 ± 221 h*ng/mL and the CL/F (healthy adult volunteers [12]; [26]) was 585 ± 81.6 mL/h. The “AUC(0-t)” value (healthy adult volunteers [12]; [27]) was 2,545 ± 497 h*ng/mL, the “AUC(0−12)” value (healthy adult volunteers [12]; [27]) was 1,776 ± 260 h*ng/mL and the CL/F (healthy adult volunteers [12]; [27]) was 665 ± 107 mL/h. For the same compound, the “AUC(0−12)” value (healthy adult volunteers [12]; [28]) was 2,465 ± 299 h*ng/mL, the CL/F (healthy adult volunteers [12]; [28]) was 684 ± 76.1 mL/h and the CL/F (healthy adult volunteers [12]; [29]) was 571 ± 107 (6) mL/min. The λz (healthy adult volunteers [12]; [29]) was 0.1132 ± 0.0230 (6) h^−1, the CL/F (healthy adult volunteers [12]; [30]) was 665 ± 107 (6) mL/min and the λz (healthy adult volunteers [12]; [30]) was 0.1073 ± 0.0161 (6) h^−1. The CL/F (healthy adult volunteers [12]; [31]) was 585 ± 81.6 (6) mL/min, the λz (healthy adult volunteers [12]; [31]) was 0.1025 ± 0.0186 (6) h^−1 and the CL/F (healthy adult volunteers [12]; [32]) was 684 ± 76.1 (6) mL/min. For the same compound, the λz (healthy adult volunteers [12]; [32]) was 0.0894 ± 0.0117 (6) h^−1, the “deaths / clinical observations, 9-month study in minipigs” value (minipigs [13]) was “no deaths attributed to test article or significant clinical observations” and the IC50 [4] was 0.61 µM. For the same compound, the “binding affinity of RPPX at the D2 receptor, times lower than PPX, literature” value (D2 dopamine receptor) was 10-20 times and 9-21 times, the CL/F (healthy adult volunteers [14]; CL001, 50 mg SD, Fasted) was 706 ± 182 mL/h and the Ue (healthy adult volunteers [14]; CL001, 50 mg SD, Fasted) was 35.3 ± 5.19 ^ mg. For the same compound, the CL/F (healthy adult volunteers [14]; CL001, 150 mg SD, Fasted) was 692 ± 183 mL/h, the Ue (healthy adult volunteers [14]; CL001, 150 mg SD, Fasted) was 60.5 ± 7.04 ^ mg and the CL/F (healthy adult volunteers [14]; CL001, 150 mg SD, second 150 mg line, Food printed Fasted) was 774 ± 165 mL/h. The CL/F (healthy adult volunteers [14]; CL001, 300 mg SD, Fasted) was 659 ± 260 mL/h, the Ue (healthy adult volunteers [14]; CL001, 300 mg SD, Fasted) was 198 ± 28.0 ^ mg and the “Urinary excretion of unchanged drug, share of drug elimination” value (healthy adult volunteers [14]; across dose levels) was “approximately 70%”. For the same compound, the “subjects reporting at least one non-serious adverse event” value (healthy adult volunteers [14]; all 24 subjects (RPPX or placebo, blinded)) was 46%, the “subjects with mild dizziness (most frequent AE)” value (healthy adult volunteers [14]; all subjects (RPPX or placebo, blinded)) was 21% and the CL/F (healthy adult volunteers [14]; single oral 50 mg, fasted) was 706 ± 182 (6) mL/min. The Fe (healthy adult volunteers [14]; single oral 50 mg, fasted) was 70.7 ± 10.4 (6) % Dose, the Ue (healthy adult volunteers [14]; single oral 50 mg, fasted) was 35.3 ± 5.19 (6) mg and the λZ (healthy adult volunteers [14]; single oral 50 mg, fasted) was 0.1064 ± 0.0171 (6) h^−1. The CL/F (healthy adult volunteers [14]; single oral 150 mg, fasted) was 692 ± 183 (5) mL/min, the Fe (healthy adult volunteers [14]; single oral 150 mg, fasted) was 40.3 ± 4.69 (6) % Dose and the Ue (healthy adult volunteers [14]; single oral 150 mg, fasted) was 60.5 ± 7.04 (6) mg. The λZ (healthy adult volunteers [14]; single oral 150 mg, fasted) was 0.1001 ± 0.0087 (5) h^−1, the CL/F (healthy adult volunteers [14]; single oral 150 mg, fed) was 774 ± 165 (6) mL/min and the λZ (healthy adult volunteers [14]; single oral 150 mg, fed) was 0.1152 ± 0.0256 (6) h^−1. For the same compound, the CL/F (healthy adult volunteers [14]; single oral 300 mg, fasted) was 659 ± 260 (6) mL/min, the Fe (healthy adult volunteers [14]; single oral 300 mg, fasted) was 65.8 ± 9.33 (6) % Dose and the Ue (healthy adult volunteers [14]; single oral 300 mg, fasted) was 198 ± 28.0 (6) mg. For the same compound, the λZ (healthy adult volunteers [14]; single oral 300 mg, fasted) was 0.1151 ± 0.0309 (6) h^−1, the Cmax (clinical [15]; 50 mg) was 125 ± 22 ng/mL and the Tmax (clinical [15]; 50 mg) was 2.04 h. It also gave a Cmax (clinical [15]; 150 mg) of 360 ± 60.4 ng/mL, a Tmax (clinical [15]; 150 mg) of 2.04 h and a Cmax (clinical [15]; 300 mg) of 781 ± 158 ng/mL. The Tmax (clinical [15]; 300 mg) was 1.96 h, the “mortality / clinical observations between the 13-week and 26-week sacrifices, minipigs” value (minipigs [16]) was “no mortalities attributed to test article or significant clinical observations” and the “mortality between the 13-week and 26-week sacrifices, rats” value (rats [17]) was “no mortalities at any dose level”. The “mortality in repeat dose studies in minipigs” value (minipigs [18]; 75 mg/kg level, by month 2) was “mortalities” and the “target organ toxicity by histopathology after 3 months, minipigs” value (minipigs [18]; both, minipig, in vivo, 3 months) was “No target organ toxicity”.
